Laboratory results reported in ChEMBL document CHEMBL4483862, “Open-source discovery of chemical leads for next-generation chemoprotective antimalarials” (2018).

System: Plasmodium berghei
Assay: Luciferase/luciferin-expressing antifolate-resistant parasites were used to infect a culture of HepG2 cells that were pre-incubated with compounds. Infected hepatocytes emit light due to the luciferase reaction. Assay results are presented as the percent inhibition of light emission compared to control. […]
Format: functional
Conditions: sporozoite; for IC90: read-out: LUCIFERASE INFECTION ASSAY - IC90
[1] = read-out: LUCIFERASE INFECTION ASSAY - IC50

| SMILES | IC90 [µM] | IC50 [1] [µM] | also measured |
| --- | --- | --- | --- |
| Cc1ccc(S(=O)(=O)N2c3ccc(S(N)(=O)=O)cc3CC2C)cc1 (centres undefined) | > 9.01 | – | IC50 (PBLUC_HILL_SLOPE 2.71, PBLUC_R_SQUARED 0.472, read-out: LUCIFERASE INFECTION ASSAY - IC50): 4.01 µM |
| CC(C)NC(=O)c1c(NC(=O)c2ccc(C#N)cc2)nc2ccccn12 | > 9.5 | – | IC50 (HEPG2TOX_HILL_SLOPE 1.96, HEPG2TOX_R_SQUARED 0.946, PBLUC_HILL_SLOPE 9.83, PBLUC_R_SQUARED 0.197, read-out: LUCIFERASE INFECTION ASSAY - IC50): 8.07 µM |
| O=C(NCCO)c1cccc(-c2ccc3ncc(-c4ccc5c(c4)OCO5)n3n2)c1 | 3.86 | – | IC50 (HEPG2TOX_HILL_SLOPE 1.62, HEPG2TOX_R_SQUARED 0.792, PBLUC_HILL_SLOPE 12.2, PBLUC_R_SQUARED 0.362, read-out: LUCIFERASE INFECTION ASSAY - IC50): 3.22 µM |
| COc1cc(/C=C2\SC(=O)N(CCNC(=O)c3cnccn3)C2=O)ccc1OC(F)F | > 10 | – | IC50 (HEPG2TOX_HILL_SLOPE 8.8, HEPG2TOX_R_SQUARED 0.871, PBLUC_HILL_SLOPE 1.47, PBLUC_R_SQUARED 0.589, read-out: LUCIFERASE INFECTION ASSAY - IC50): > 10 µM |
| C=CCc1c(C)nc2c(-c3ccccc3)cnn2c1N1CCN(CCO)CC1 | > 8.74 | – | IC50 (PBLUC_HILL_SLOPE 1.51, PBLUC_R_SQUARED 0.304, read-out: LUCIFERASE INFECTION ASSAY - IC50): 2.98 µM |
| Cn1c(=O)oc2ccc(S(=O)(=O)Nc3ccc4c(c3)CCCC4)cc21 | > 9.21 | > 9.21 | – |
| CCNC(=O)c1nn(Cc2cccc(OC)c2)c2c1CN(CCC(C)c1ccc(C)o1)CC2 (centres undefined) | > 7.32 | – | IC50 (PBLUC_HILL_SLOPE 5.04, PBLUC_R_SQUARED 0.686, read-out: LUCIFERASE INFECTION ASSAY - IC50): 6.68 µM |
| CC(C)(C)c1ccc(NC(=O)c2nc(-c3ccccc3)n(-c3ccccc3)n2)cc1 | > 10 | > 10 | – |
| CCn1c(O)c(C2NCCc3c2[nH]c2ccc(OC)cc32)c(=O)[nH]c1=O (centres undefined) | 4.71 | – | IC50 (HEPG2TOX_HILL_SLOPE 0.178, HEPG2TOX_R_SQUARED 0.706, PBLUC_HILL_SLOPE 1.13, PBLUC_R_SQUARED 0.918, read-out: LUCIFERASE INFECTION ASSAY - IC50): 0.675 µM |
| CC(C)(C)c1ccc(C(=O)Nc2cccc(F)c2C#N)cc1 | > 11.1 | – | IC50 (PBLUC_HILL_SLOPE 11.7, PBLUC_R_SQUARED 0.257, read-out: LUCIFERASE INFECTION ASSAY - IC50): 9.4 µM |
| C(=C(c1nc2ccccc2s1)c1nc2ccccc2s1)c1ccncc1 | 6.3 | – | IC50 (HEPG2TOX_HILL_SLOPE 11.7, HEPG2TOX_R_SQUARED 0.737, PBLUC_HILL_SLOPE 3.59, 2.80, PBLUC_R_SQUARED 0.729, 0.898, read-out: LUCIFERASE INFECTION ASSAY - IC50): 3.12 µM |
| COc1ccc(/C=C/C(=O)N2CCCC2c2cccs2)cc1S(=O)(=O)N1CCCCC1 (centres undefined) | > 10 | > 10 | – |
| Cc1cnc(NC(=O)C2CCN(S(=O)(=O)c3ccc(Cl)cc3)CC2)s1 | 3.13 | – | IC50 (PBLUC_HILL_SLOPE 19, PBLUC_R_SQUARED 0.695, read-out: LUCIFERASE INFECTION ASSAY - IC50): 2.79 µM |
| O=C1C=CC(=O)N1c1ccc(Cl)cc1 | > 15.9 | – | IC50 (FFLUC_HILL_SLOPE 21.9, FFLUC_R_SQUARED 0.305, PBLUC_HILL_SLOPE 2.09, PBLUC_R_SQUARED 0.529, read-out: LUCIFERASE INFECTION ASSAY - IC50): 12.2 µM |
| CCN(CC)S(=O)(=O)c1ccc(C(C)NC(=O)c2cn(C)c3ccccc23)cc1 (centres undefined) | 6.07 | – | IC50 (PBLUC_HILL_SLOPE 2.76, PBLUC_R_SQUARED 0.764, read-out: LUCIFERASE INFECTION ASSAY - IC50): 2.73 µM |
| c1nc(NCC2(N3CCOCC3)CCCCC2)c2ccsc2n1 | > 10 | > 10 | – |

| SMILES | IC90 [µM] | IC50 [1] [µM] | also measured |
| --- | --- | --- | --- |
| COc1cc2c(cc1/C=C/C(=O)N(Cc1nc(=O)c3ccccc3[nH]1)CC1CCCO1)OC(C)C2 (centres undefined) | > 10 | > 10 | – |
| Cc1cc(C)c(C)c(S(=O)(=O)N2CCN(S(=O)(=O)c3ccc(C(C)C)cc3)CC2)c1C | > 10 | – | IC50 (PBLUC_HILL_SLOPE 10.5, PBLUC_R_SQUARED 0.247, read-out: LUCIFERASE INFECTION ASSAY - IC50): 8.75 µM |
| COc1ccc(COC(=O)c2cc(C)nc3ccccc23)cc1F | 0.157 | – | IC50 (HEPG2TOX_HILL_SLOPE 0.536, HEPG2TOX_R_SQUARED 0.687, PBLUC_HILL_SLOPE 9.99, PBLUC_R_SQUARED 0.341, read-out: LUCIFERASE INFECTION ASSAY - IC50): 0.126 µM |
| CC(C)(C)c1ccc(C2SCC(=O)N2c2ccc(Cl)cc2)cc1 (centres undefined) | 6.66 | – | IC50 (PBLUC_HILL_SLOPE 4.61, PBLUC_R_SQUARED 0.0595, read-out: LUCIFERASE INFECTION ASSAY - IC50): 4.13 µM |
| COc1ccc(C(=O)c2sc(Nc3ccccc3C)c(C(=O)Nc3ccccc3C)c2N)cc1 | > 10 | 5.95 | – |
| COC(=O)c1cc(C(=O)OC)cc(-n2c(C)cc(C(O)(C(=O)OC)C(F)(F)F)c2C)c1 (centres undefined) | > 10 | > 10 | – |
| Cc1cc(C)n(-c2cc(N3CCN(C)CC3)nc(-c3ccccc3)n2)n1 | > 9.47 | – | IC50 (PBLUC_HILL_SLOPE 14.6, PBLUC_R_SQUARED 0.207, read-out: LUCIFERASE INFECTION ASSAY - IC50): 8.77 µM |
| S=C(NCc1ccco1)Nc1ccc(Oc2ccc(Cl)cc2)cc1 | > 9.2 | > 9.2 | – |
| Cc1nc(SCc2csc(-c3ccccc3)n2)c(C#N)c(C)c1C | > 10 | > 10 | – |
| COc1cc(NC(=O)N2CCc3nc(Nc4cc(C)cc(C)c4)ncc3C2)cc(OC)c1OC | > 7.12 | – | IC50 (PBLUC_HILL_SLOPE 3.8, PBLUC_R_SQUARED 0.0984, read-out: LUCIFERASE INFECTION ASSAY - IC50): 4.59 µM |
| COc1cc(C(=O)N2CC=C(c3c[nH]c4ccccc34)CC2)cc(Cl)c1OC | > 10 | – | IC50 (HEPG2TOX_HILL_SLOPE 1.93, HEPG2TOX_R_SQUARED 0.934, PBLUC_HILL_SLOPE 11.8, PBLUC_R_SQUARED 0.218, read-out: LUCIFERASE INFECTION ASSAY - IC50): 8.9 µM |
| CN1CCN(S(=O)(=O)c2ccc(SCC3CCCCC3)nc2)CC1 | > 10 | > 10 | – |
| COc1ccc(/C=c2\s/c(=C\C(=O)C(C)(C)C)[nH]c2=O)cc1OCc1cccnc1 | > 10 | > 10 | – |
| CC(C)c1ccc(Nc2ccn3ncc(-c4cccc(N)c4)c3n2)cc1 | > 9.61 | – | IC50 (HEPG2TOX_HILL_SLOPE 3.91, HEPG2TOX_R_SQUARED 0.953, PBLUC_HILL_SLOPE 9.39, PBLUC_R_SQUARED 0.444, read-out: LUCIFERASE INFECTION ASSAY - IC50): 8 µM |
| O=C(Cc1cccs1)Nc1nc2ccccc2nc1N1CCCC1 | > 10 | – | IC50 (HEPG2TOX_HILL_SLOPE 4.38, HEPG2TOX_R_SQUARED 0.169, read-out: LUCIFERASE INFECTION ASSAY - IC50): > 10 µM |
| CC(OC(=O)c1ccccc1NS(=O)(=O)c1ccc2c(c1)OCCO2)C(=O)Nc1ccc([N+](=O)[O-])cc1C(F)(F)F (centres undefined) | > 10 | > 10 | – |
